Measurements as given in ChEMBL document CHEMBL4257571, “Discovery of 5-(2-chloro-4'-(1H-imidazol-1-yl)-[1,1'-biphenyl]-4-yl)-1H-tetrazole as potent and orally efficacious S-nitrosoglutathione reductase (GSNOR) inhibitors for the potential treatment of COPD” (Bioorg Med Chem Lett, 2018).
One block for each compound: values may come before it.

Key:
[1] = target: T1, Alcohol dehydrogenase class-3 (Homo sapiens, UniProt P11766); test: Inhibition of human GSNOR assessed as reduction in NADH consumption after 3 mins by spectrophotometric analysis
Target sequence in this assay (P11766 whole entry): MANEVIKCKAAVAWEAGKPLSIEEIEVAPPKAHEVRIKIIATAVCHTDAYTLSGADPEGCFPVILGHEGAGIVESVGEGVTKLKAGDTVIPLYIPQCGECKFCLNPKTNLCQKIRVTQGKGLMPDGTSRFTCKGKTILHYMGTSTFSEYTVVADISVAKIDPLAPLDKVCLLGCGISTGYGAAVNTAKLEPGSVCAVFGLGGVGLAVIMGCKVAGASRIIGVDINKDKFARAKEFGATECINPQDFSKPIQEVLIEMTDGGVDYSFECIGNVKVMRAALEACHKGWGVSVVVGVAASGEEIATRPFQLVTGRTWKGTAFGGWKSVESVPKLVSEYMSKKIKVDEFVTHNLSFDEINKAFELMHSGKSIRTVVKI

[2] = target: T1, Alcohol dehydrogenase class-3; test: Inhibition of human GSNOR assessed as reduction in NADH consumption at 10 uM after 3 mins by spectrophotometric analysis relative to control
Target sequence in this assay (P11766 2-374 limits assumed): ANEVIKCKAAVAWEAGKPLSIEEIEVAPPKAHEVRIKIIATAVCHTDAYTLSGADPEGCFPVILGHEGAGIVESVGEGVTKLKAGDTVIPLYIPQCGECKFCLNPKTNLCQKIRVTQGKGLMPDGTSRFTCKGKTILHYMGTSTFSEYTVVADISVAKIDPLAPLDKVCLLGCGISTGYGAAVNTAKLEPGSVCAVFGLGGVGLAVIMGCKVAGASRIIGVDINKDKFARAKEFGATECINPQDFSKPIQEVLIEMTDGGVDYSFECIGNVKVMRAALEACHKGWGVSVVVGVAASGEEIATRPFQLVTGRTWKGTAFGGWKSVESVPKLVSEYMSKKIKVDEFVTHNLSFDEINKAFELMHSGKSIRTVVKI

[3] = target: T2, CYP1A2 (Homo sapiens, UniProt P05177); test: Inhibition of CYP1A2 in human liver microsomes at 10 uM after 20 mins in presence of NADPH by LC/MS/MS analysis relative to control; format: ADME; settings: liver microsomes
T2 sequence (P05177 whole entry): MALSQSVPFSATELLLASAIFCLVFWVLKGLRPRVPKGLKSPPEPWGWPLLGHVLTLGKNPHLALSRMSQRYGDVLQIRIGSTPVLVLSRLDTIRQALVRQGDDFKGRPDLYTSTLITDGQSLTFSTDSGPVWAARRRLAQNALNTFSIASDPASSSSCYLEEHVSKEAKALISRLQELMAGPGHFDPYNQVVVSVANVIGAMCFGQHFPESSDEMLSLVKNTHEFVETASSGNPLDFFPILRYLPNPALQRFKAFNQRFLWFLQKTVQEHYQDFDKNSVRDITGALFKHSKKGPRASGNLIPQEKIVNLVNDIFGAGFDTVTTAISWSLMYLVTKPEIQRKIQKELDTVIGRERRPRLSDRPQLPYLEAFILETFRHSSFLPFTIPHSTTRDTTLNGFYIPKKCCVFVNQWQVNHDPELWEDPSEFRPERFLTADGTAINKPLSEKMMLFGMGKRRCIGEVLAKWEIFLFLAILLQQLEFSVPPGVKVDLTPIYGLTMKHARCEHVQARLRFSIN

[4] = target: CYP2C19 (Homo sapiens, UniProt P33261); test: Inhibition of CYP2C19 in human liver microsomes at 10 uM after 40 mins in presence of NADPH by LC/MS/MS analysis relative to control; format: ADME
CYP2C19, sequence (P33261 whole entry): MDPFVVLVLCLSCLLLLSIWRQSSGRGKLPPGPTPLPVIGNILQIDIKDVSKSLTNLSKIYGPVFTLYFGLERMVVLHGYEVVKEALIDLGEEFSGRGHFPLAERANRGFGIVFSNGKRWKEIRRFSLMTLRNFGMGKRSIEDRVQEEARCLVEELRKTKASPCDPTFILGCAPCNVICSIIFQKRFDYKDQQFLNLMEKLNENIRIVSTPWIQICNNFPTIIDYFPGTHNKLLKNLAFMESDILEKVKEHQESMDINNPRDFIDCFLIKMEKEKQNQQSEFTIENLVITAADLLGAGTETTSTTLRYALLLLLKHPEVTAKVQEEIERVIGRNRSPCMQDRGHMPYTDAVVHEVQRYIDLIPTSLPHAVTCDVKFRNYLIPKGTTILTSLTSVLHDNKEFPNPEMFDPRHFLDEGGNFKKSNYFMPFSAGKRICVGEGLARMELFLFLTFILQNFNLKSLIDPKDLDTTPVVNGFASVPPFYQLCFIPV

[5] = Metabolic stability of rat liver microsomes assessed as parent compound remaining at 0.1 uM after 60 mins in presence of NADPH by LC/MS/MS analysis; format: ADME, microsome; settings: read-out: Stability
[6] = Metabolic stability of mouse liver microsomes assessed as parent compound remaining at 0.1 uM after 60 mins in presence of NADPH by LC/MS/MS analysis; format: ADME, microsome; settings: read-out: Stability
[7] = Metabolic stability of human liver microsomes assessed as parent compound remaining at 0.1 uM after 60 mins in presence of NADPH by LC/MS/MS analysis; format: ADME, microsome; settings: read-out: Stability
[8] = target: CYP2D6 (Homo sapiens, UniProt P10635); test: (§1) Inhibition of CYP2D6 in human liver microsomes at 10 uM after 20 mins in presence of NADPH by LC/MS/MS analysis relative to control; format: ADME; settings: liver microsomes
CYP2D6, sequence (P10635 whole entry): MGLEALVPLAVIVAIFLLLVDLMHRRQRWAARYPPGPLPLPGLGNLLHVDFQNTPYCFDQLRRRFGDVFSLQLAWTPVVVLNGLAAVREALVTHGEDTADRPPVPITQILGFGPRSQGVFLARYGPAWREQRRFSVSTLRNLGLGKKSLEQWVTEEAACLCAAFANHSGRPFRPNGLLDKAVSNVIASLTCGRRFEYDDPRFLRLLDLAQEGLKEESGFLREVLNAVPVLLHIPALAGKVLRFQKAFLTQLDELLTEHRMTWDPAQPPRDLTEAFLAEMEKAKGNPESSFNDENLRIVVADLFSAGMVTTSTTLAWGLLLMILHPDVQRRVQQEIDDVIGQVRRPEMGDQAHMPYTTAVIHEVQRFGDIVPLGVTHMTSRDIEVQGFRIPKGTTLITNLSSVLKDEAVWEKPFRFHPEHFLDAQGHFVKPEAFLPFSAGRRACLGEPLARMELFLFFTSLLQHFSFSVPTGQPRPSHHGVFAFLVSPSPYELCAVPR

[9] = target: CYP3A4 (Homo sapiens, UniProt P08684); test: Inhibition of CYP3A4 in human liver microsomes at 10 uM after 20 mins in presence of NADPH by LC/MS/MS analysis relative to control; format: ADME; settings: liver microsomes
CYP3A4, sequence (P08684 whole entry): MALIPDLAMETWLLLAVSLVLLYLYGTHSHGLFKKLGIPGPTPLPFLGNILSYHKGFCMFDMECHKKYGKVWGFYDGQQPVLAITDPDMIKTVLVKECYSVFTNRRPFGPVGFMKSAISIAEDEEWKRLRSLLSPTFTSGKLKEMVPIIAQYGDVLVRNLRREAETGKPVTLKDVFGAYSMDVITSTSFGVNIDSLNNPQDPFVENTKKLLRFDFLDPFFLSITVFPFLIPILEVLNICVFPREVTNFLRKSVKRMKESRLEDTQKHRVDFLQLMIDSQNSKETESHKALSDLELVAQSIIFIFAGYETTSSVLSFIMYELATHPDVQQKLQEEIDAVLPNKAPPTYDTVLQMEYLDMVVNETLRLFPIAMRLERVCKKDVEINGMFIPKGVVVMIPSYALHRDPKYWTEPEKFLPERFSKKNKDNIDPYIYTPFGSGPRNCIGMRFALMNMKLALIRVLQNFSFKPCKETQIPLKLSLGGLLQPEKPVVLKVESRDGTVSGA

[10] = target: CYP2C9 (Homo sapiens, UniProt P11712); test: Inhibition of CYP2C9 in human liver microsomes at 10 uM after 20 mins in presence of NADPH by LC/MS/MS analysis relative to control; format: ADME
CYP2C9, sequence (P11712 whole entry): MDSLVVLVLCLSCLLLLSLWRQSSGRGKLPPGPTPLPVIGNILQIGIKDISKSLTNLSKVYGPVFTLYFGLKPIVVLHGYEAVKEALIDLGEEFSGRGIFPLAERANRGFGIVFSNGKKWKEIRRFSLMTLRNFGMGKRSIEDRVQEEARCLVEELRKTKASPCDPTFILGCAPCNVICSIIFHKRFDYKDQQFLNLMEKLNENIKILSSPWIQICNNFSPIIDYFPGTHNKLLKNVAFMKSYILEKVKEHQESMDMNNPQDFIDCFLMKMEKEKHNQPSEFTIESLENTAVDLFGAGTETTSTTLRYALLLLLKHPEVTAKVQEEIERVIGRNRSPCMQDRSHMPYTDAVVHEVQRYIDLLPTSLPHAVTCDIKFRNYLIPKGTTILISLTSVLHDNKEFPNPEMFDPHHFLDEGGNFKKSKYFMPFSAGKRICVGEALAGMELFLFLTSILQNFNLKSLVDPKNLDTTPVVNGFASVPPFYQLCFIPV

[11] = target: Cytochrome P450 2D6 (Homo sapiens, UniProt P10635); test: as §1; format: ADME; settings: microsomes, 20 min, 10 µM
Cytochrome P450 2D6, sequence (P10635 whole entry): as the sequence (P10635 whole entry) above

[12] = tested on: Mus musculus; test: Anti-inflammatory activity in C57BL/6 mouse model of cigarette smoke induced chronic obstructive pulmonary disease assessed as total leukocyte count in bronchoalveolar lavage at 5 mg/kg, po BID administered 1 hr prior to both smoke exposure for 7 days by hemocytometry; format: functional
[13] = tested on: Mus musculus; test: Anti-inflammatory activity in C57BL/6 mouse model of cigarette smoke induced chronic obstructive pulmonary disease assessed as macrophages level in bronchoalveolar lavage at 5 mg/kg, po BID administered 1 hr prior to both smoke exposure for 7 days by Leishman's staining based assay; format: functional
[14] = tested on: Mus musculus; test: Anti-inflammatory activity in C57BL/6 mouse model of cigarette smoke induced chronic obstructive pulmonary disease assessed as neutrophil level in bronchoalveolar lavage at 5 mg/kg, po BID administered 1 hr prior to both smoke exposure for 7 days by Leishman's staining based assay; format: functional

IC50 [1]: 20 nM
Compound: Fc1cc(-c2nnn[nH]2)ccc1-c1ccc(-n2ccnc2)cc1

inhibition [2]: 10%
Compound: N#Cc1ccc(-c2ccc(-n3ccnc3)cc2)cc1

inhibition at 20 min, 10 µM [3]: 22% | inhibition at 40 min, 10 µM [4]: 18% | IC50 [1]: 20 nM | remaining at 1 h, 0.1 µM [5]: 64% | remaining at 1 h, 0.1 µM [6]: 48% | remaining at 1 h, 0.1 µM [7]: 100% | inhibition at 20 min, 10 µM [8]: 14% | inhibition at 20 min, 10 µM [9]: 4% | inhibition at 20 min, 10 µM [10]: 37%
Compound: Cc1cc(-n2ccnc2)ccc1-c1ccc(C(=O)O)cc1

IC50 [1]: 26 nM
Compound: Cc1cc(-c2nnn[nH]2)ccc1-c1ccc(-n2ccnc2)cc1

IC50 [1]: 41 nM
Compound: Cc1cc(-n2ccnc2)cnc1-c1ccc(C(=O)O)cc1

IC50 [1]: 3280 nM
Compound: c1cc(-c2nn[nH]n2)ccc1-c1ccc(-c2nnn[nH]2)cc1

inhibition at 20 min, 10 µM [3]: 41% | inhibition at 40 min, 10 µM [4]: 88% | IC50 [1]: 11 nM | remaining at 1 h, 0.1 µM [5]: 80% | remaining at 1 h, 0.1 µM [6]: 78% | remaining at 1 h, 0.1 µM [7]: 97% | inhibition at 20 min, 10 µM [8]: 52% | inhibition at 20 min, 10 µM [9]: 30% | inhibition at 20 min, 10 µM [10]: 78%
Compound: CCc1cc(-n2ccnc2)ccc1-c1ccc(-c2nnn[nH]2)cc1F

IC50 [1]: 36 nM
Compound: Cc1cc(-n2ccnc2)cnc1-c1ccc(C(=O)O)cc1F

inhibition at 20 min, 10 µM [3]: 13% | inhibition at 40 min, 10 µM [4]: 67% | IC50 [1]: 24 nM | remaining at 1 h, 0.1 µM [5]: 99% | remaining at 1 h, 0.1 µM [6]: 87% | remaining at 1 h, 0.1 µM [7]: 5% | inhibition (INH) [11]: Not Active | inhibition at 20 min, 10 µM [9]: 18% | inhibition at 20 min, 10 µM [10]: 48%
Compound: CCc1cc(-n2ccnc2C)ccc1-c1ccc(-c2nnn[nH]2)cc1

IC50 [1]: 62 nM
Compound: CCc1cc(-n2ccnc2)cnc1-c1ccc(-c2nnn[nH]2)cc1F

IC50 [1]: 152 nM
Compound: O=c1nc(-c2ccc(-c3ccc(-n4ccnc4)cc3)cc2)[nH]o1

Compound: O=C(Nc1c(Cl)cncc1Cl)c1ccc(OC(F)F)c(OCC2CC2)c1 [ROFLUMILAST]
Activity [12]: 58% | Activity [13]: 75% | Activity [14]: 40%

inhibition at 20 min, 10 µM [3]: 20% | inhibition at 40 min, 10 µM [4]: 42% | IC50 [1]: 20 nM | remaining at 1 h, 0.1 µM [5]: 39% | remaining at 1 h, 0.1 µM [6]: 19% | remaining at 1 h, 0.1 µM [7]: 83% | inhibition at 20 min, 10 µM [8]: 11% | inhibition at 20 min, 10 µM [9]: 1% | inhibition at 20 min, 10 µM [10]: 64%
Compound: Clc1cc(-n2ccnc2)cnc1-c1ccc(-c2nnn[nH]2)cc1

IC50 [1]: 89 nM
Compound: O=C(O)c1ccc(-c2ncc(-n3ccnc3)cc2Cl)cc1

IC50 [1]: 29 nM
Compound: O=C(O)c1ccc(-c2ccc(-n3ccnc3)cc2)c(F)c1

inhibition at 20 min, 10 µM [3]: 56% | inhibition at 40 min, 10 µM [4]: 86% | IC50 [1]: 6.1 nM | remaining at 1 h, 0.1 µM [5]: 71% | remaining at 1 h, 0.1 µM [6]: 58% | remaining at 1 h, 0.1 µM [7]: 100% | inhibition at 20 min, 10 µM [8]: 37% | inhibition at 20 min, 10 µM [9]: 33% | inhibition at 20 min, 10 µM [10]: 94%
Compound: CCc1cc(-n2ccnc2)ccc1-c1ccc(-c2nnn[nH]2)cc1

IC50 [1]: 59 nM
Compound: O=C(O)c1ccc(-c2ccc(-n3ccnc3)cc2Cl)cc1

IC50 [1]: 38 nM
Compound: O=C(O)c1ccc(-c2ccc(-n3ccnc3)cc2)c(C(F)(F)F)c1

inhibition at 20 min, 10 µM [3]: 10% | inhibition at 40 min, 10 µM [4]: 33% | IC50 [1]: 97 nM | remaining at 1 h, 0.1 µM [5]: 82% | remaining at 1 h, 0.1 µM [6]: 92% | remaining at 1 h, 0.1 µM [7]: 63% | inhibition at 20 min, 10 µM [8]: 37% | inhibition at 20 min, 10 µM [9]: -2% | inhibition at 20 min, 10 µM [10]: 18%
Compound: Cc1nccn1-c1ccc(-c2ccc(-c3nnn[nH]3)cc2)cc1

IC50 [1]: 593 nM
Compound: Clc1cc(-c2nn[nH]n2)ccc1-c1ccc(-n2cnnc2)cc1

IC50 [1]: 66 nM
Compound: CCc1cc(-n2ccnc2)cnc1-c1ccc(-c2nnn[nH]2)cc1

IC50 [1]: 30 nM
Compound: O=C(O)c1ccc(-c2ccc(-n3ccnc3)cc2)c(Cl)c1
